What was measured:
[1] = molecular target: T1, in vitro translated firefly luciferase (Photinus pyralis, UniProt P08659); experiment: Effect on firefly luciferase reaction in luciferase assay kits; format: biochemical
T1 construct: made in house
From the text: Our data in FIG. 4D were based on the Dual-Glo kit, in which the luciferase reaction is not affected by resveratrol. Also, there was no resveratrol added to the in vitro luciferase assay reactions in FIG. 4D. Rather, resveratrol was used to treat cells and washed away before the cells were lysed for luciferase assay.

[2] = tested on: proteins of S. cerevisiae BY4742 cell lysates; experiment: DARTS with yeast cell lysates incubated in vitro with resveratrol, mass spectrometry of protected bands; format: binding; settings: 1 mM resveratrol
Protocol: (§1) For DARTS using yeast cell lysates incubated in vitro with resveratrol (FIG. 4B), S. cerevisiae BY4742 cells were used.
(§2) Gel bands were cut out and prepared for mass spec analysis with trypsin digestion as described in SI. Peptides were analyzed by LC/MS/MS on a Thermo LTQ-Orbitrap mass spectrometer with an Eksigent LC pump. For quantitative comparison of protein and peptide abundances, MS spectra were analyzed using the differential workflow of Rosetta Elucidator (Rosetta Inpharmatics) (54). Annotation was performed using PeptideTeller and ProteinTeller (see SI).
(§3) Proteins were initially identified by searching the spectra against the human International Protein Index database (version 3.46) and the S. cerevisiae Swissprot database (May 2008) using the SEQUEST algorithm (Eng et al. (1994) J Am Soc Mass Spectrom 5: 976-989) integrated into the Bioworks software package. Each peptide met the following criteria: XCorr ≧2 (+1), ≧3 (+2), ≧4 (+3), ≧5 (+4), and DeltaCN>0.1. For quantitative comparison of protein and peptide abundances, MS spectra were analyzed using the differential workflow of the Rosetta Elucidator software system (Rosetta Inpharmatics) (Neubert et al. (2008) J Proteome Res 7: 2270-2279). Annotation was performed using PeptideTeller and ProteinTeller with a minimum probability of 0.99 and predicted error of 0.0. Protein ratio data were generated with a P-value cutoff of 0.01 for all proteins with a peptide number >1. Intensity scaling was performed against the mean of feature signals, with 10% of outliers removed from the baseline dataset. Similar results were obtained in analysis without intensity scaling (FIG. 9A).
(§4) For the DARTS experiment using yeast cell lysates incubated in vitro with resveratrol, BY4742 cells were suspended in yeast extraction buffer (Grant et al. (1999) Meth. Mol Biol 119: 311-317) [(40 mM HEPES/KOH pH 7.5, 350 mM NaCl, 0.5 mM DTT, 10% glycerol, 0.1% Tween-20) supplemented with Roche complete protease inhibitor cocktail (Roche Diagnostics, Indianapolis, Ind.)]. Cell pellets were broken with glass beads for 2×40 s at 4° C. in a FastPrep-24 (MP Biomedicals, Solon, Ohio). Whole cell lysates were collected after centrifugation (1500 rpm, 10 min). Lysates were incubated with ethanol control or 1 mM resveratrol for 30 min at room temperature. Samples were then divided into two aliquots, which underwent proteolysis with thermolysin or mock proteolysis.

[3] = molecular target: T2, proteins of S. cerevisiae BY4742 cell lysates (Saccharomyces cerevisiae, UniProt P10081); experiment: as above; format: binding; settings: 1 mM resveratrol, Upper band
T2 construct: endogenous in cells; host or cells: S. cerevisiae BY4742
T2 sequence (P10081 whole entry): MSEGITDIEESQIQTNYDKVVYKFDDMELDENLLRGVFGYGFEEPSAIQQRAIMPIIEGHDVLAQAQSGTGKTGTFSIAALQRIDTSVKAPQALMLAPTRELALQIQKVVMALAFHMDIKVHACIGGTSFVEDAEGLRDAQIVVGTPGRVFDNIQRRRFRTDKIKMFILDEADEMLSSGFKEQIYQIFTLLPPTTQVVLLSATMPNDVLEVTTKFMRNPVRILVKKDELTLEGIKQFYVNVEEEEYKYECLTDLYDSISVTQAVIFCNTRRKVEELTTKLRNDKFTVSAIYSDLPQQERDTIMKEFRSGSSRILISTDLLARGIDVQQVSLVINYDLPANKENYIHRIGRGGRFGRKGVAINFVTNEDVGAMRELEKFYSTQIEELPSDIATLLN
Protocol: as §1, §2, §3, §4

[4] = Precipitation in yeast culture medium; format: physicochemical; settings: final concentration ˜1 mM
From the text: (§5) For cytotoxic and cytostatic small molecules, deletion mutants in their target often would have increased sensitivity to the drug (and overexpression could decrease sensitivity). Indeed, this is the basis for the elegant haploinsufficiency profiling (HIP) strategy (Giaever et al. (1999) Nat Genet. 21: 278-283). However, an inherent limitation of this type of fitness-based methods is that they are applicable only to drugs that affect cell growth/viability, i.e., cytotoxic or cytostatic drugs. […] A key advantage of DARTS is that it is independent of the drug's biological phenotype, and thus is not limited to the studies of cytotoxic/cytostatic drugs or drugs that induce transcriptional or morphological changes which have been the limitation of previous methods.

[5] = tested on: yeast (wild type, tif1 or tif2 deletion mutants); experiment: Yeast growth inhibition; format: cell-based; settings: final concentration ˜1 mM
From the text: as §5

T1 sequence (P08659 whole entry): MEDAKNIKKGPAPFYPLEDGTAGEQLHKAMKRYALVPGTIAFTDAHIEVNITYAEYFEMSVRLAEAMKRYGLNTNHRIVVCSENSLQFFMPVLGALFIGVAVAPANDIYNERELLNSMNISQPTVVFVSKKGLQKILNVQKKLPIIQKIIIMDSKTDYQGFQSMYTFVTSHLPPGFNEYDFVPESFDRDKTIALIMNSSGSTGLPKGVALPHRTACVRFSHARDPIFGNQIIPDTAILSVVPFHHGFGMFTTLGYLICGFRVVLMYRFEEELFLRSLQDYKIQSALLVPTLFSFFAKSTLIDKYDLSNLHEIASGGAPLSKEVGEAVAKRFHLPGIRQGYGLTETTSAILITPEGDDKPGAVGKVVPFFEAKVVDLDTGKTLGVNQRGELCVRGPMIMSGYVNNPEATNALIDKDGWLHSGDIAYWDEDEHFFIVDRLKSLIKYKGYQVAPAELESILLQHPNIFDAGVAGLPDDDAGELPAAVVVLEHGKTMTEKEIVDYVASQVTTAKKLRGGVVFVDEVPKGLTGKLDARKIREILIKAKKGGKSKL

## Oc1ccc(C=Cc2cc(O)cc(O)c2)cc1 [resveratrol]
[1]; Bright-Glo kit (Promega #E2610)
  firefly luciferase readout: significantly decreased
[1]; Dual-Glo kit (Promega #E2940)
  firefly luciferase readout: little or no inhibition
[2]; Lower band
  Fold Change, 40S ribosomal protein S12: 2.07
  Fold Change, 40S ribosomal protein S15: 3.677
  Fold Change, 40S ribosomal protein S16: 2.906
  Fold Change, 40S ribosomal protein S18: 2.412
  Fold Change, 40S ribosomal protein S19: 1.965
  Fold Change, 40S ribosomal protein S24: 1.481
  Fold Change, 40S ribosomal protein S26-B: 2.429
  Fold Change, 60S ribosomal protein L14-A: 1.614
  Fold Change, 60S ribosomal protein L25: 3.564
  Fold Change, 60S ribosomal protein L26-A: 9.181
  Fold Change, 60S ribosomal protein L26-B: 11.107
  Fold Change, 60S ribosomal protein L34: 2.383
  Fold Change, 60S ribosomal protein L35: 3.774
  Fold Change, Histone H2A: 3.002
  Fold Change, Histone H2B: 2.229
  Fold Change, Ornithine aminotransferase: 2.531
[2]; Upper band
  Fold Change, 40S ribosomal protein S23: 4.84
  Fold Change, 40S ribosomal protein S26: 4.701
  Fold Change, 60S ribosomal protein L21-A: 2.777
  Fold Change, 60S ribosomal protein L24: 6.05
  Fold Change, 60S ribosomal protein L25: 2.713
  Fold Change, 60S ribosomal protein L27-A: 2.554
  Fold Change, 60S ribosomal protein L28: 1.804
[3]
  Fold Change, ATP-dependent RNA helicase eIF4A: 1.961
[4]
  behaviour in culture medium: precipitated out of the culture medium
[5]
  inhibition of yeast growth: did not cause detectable inhibition of yeast growth

Source: patent US8703438B2, “Ligand binding stabilization method for drug target identification” (The Regents of the University of California, priority 2008, dated 2014)
